Data on three compounds can be found in patent US12139487B2, “Compounds and uses thereof” (Foghorn Therapeutics Inc., priority 2022, dated 2024).

Structures are written as SMILES.

Data set [1] has as its system uveal melanoma and hematologic cancer cell lines versus other tested cell lines. The data set is described as follows: Growth of uveal melanoma, hematological and other cancer cell lines with Compound A (Cell-titer glo, day 3 and day 7, GI50). The following applies: day 7. Format: cell-based. The method, then: (§1) Procedure: Uveal melanoma cell lines (92-1, MP41, MP38, MP46), prostate cancer cell lines (LNCAP), lung cancer cell lines (NCI-H1299), and immortalized embryonic kidney lines (HEK293T) were plated into 96 well plates with growth media (see Table 9). […] Cells were incubated at 37 degrees Celsius for 3 days. After three days of treatment, the media was removed from the cells and 30 microliters of TrypLE (Gibco) was added to cells for 10 minutes. Cells were detached from the plates and resuspended with the addition of 170 microliters of growth media. Cells from two DMSO-treated control wells were counted, and the initial number of cells plated at the start of the experiment, were re-plated into fresh-compound containing plates for an additional four days at 37 degrees Celsius. At day 7, cells were harvested as described above. On day 3 and day 7, relative cell growth was measured by the addition of Cell-titer glo (Promega) and luminescence was measured on an Envision plate reader (Perkin Elmer). […] At the time of cell splitting on days 3 and 7, cells were split into new 96 well plates, and fresh compound was added four hours after re-plating.

For data set [2], the system named is uveal melanoma cell lines 92-1 and MP41. In words: Comparison of Compound A with clinical PKC and MEK inhibitors in uveal melanoma cell lines (3 day growth). The following applies: vs LXS196 and Selumetinib. Format: cell-based. Here is the method:
Procedure: Uveal melanoma cell lines, 92-1 or MP41, were plated in 96 well plates in the presence of growth media (see […]). […] Cells were incubated at 37 degrees Celsius for 3 days. After three days of treatment, cell growth was measured with Cell-titer glow (Promega), and luminescence was read on an Envision plate reader (Perkin Elmer).

Data set [3] concerns uveal melanoma, hematologic cancer, prostate cancer, breast cancer and Ewing's sarcoma cell lines versus other tested cell lines. In words: Growth of uveal melanoma, hematological, prostate, breast cancer and Ewing's sarcoma cell lines with Compound B (day 3 and day 7). It counts as cell-based. The method, then:
as §1
Procedure: All cell lines described above in Example 4 were also tested as described above with Compound B. In addition, the following cell lines were also tested as follows. […]

In data set [4] the test system is uveal melanoma cell lines (92-1, MP41, MP38, MP46). The data set is described as follows: Growth of uveal melanoma and non-small cell lung cancer cell lines (3 day, Cell-titer glow). Format: cell-based. To be noted: 3 days; 0 to 10 micromolar; FIG. 5. Here is the method:
Procedure: Uveal melanoma cell lines (92-1, MP41, MP38, MP46) and Non-small cell lung cancer cells (NCIH1299) were plated into 96 well plates with growth media (see Table 9). BRG1/BRM ATPase inhibitor, compound 67, was dissolved in DMSO and added to the cells in a concentration gradient from 0 to 10 micromolar at the time of plating. Cells were incubated at 37° C. for 3 days. After three days of treatment, cell growth was measured with Cell-titer glow (Promega), and luminescence was read on an Envision plate reader (Perkin Elmer).

For data set [5], the system named is uveal melanoma cell lines 92-1 and MP41. In words: Comparison of Compound B with clinical PKC and MEK inhibitors in uveal melanoma cell lines (3 day growth). Format: cell-based. The following applies: vs LXS196 and Selumetinib. Here is the method: Procedure: Uveal melanoma cell lines, 92-1 or MP41, were plated in 96 well plates in the presence of growth media (see Table 9). BAF ATPase inhibitor (Compound B), PKC inhibitor (LXS196; MedChemExpress), and MEK inhibitor (Selumetinib; Selleck Chemicals) were dissolved in DMSO and added to the cells in a concentration gradient from 0 to 10 micromolar at the time of plating. Cells were incubated at 37° C. for 3 days. After three days of treatment, cell growth was measured with Cell-titer glow (Promega), and luminescence was read on an Envision plate reader (Perkin Elmer).

The subject of data set [6] is parental MP41 and PKCi-resistant MP41 uveal melanoma cells. The data set is described as follows: 7-day growth inhibition assay in parental and PKC inhibitor-resistant MP41 cells. Format: cell-based. The method, then:
Procedure: MP41 uveal melanoma cells were made resistant to the PKC inhibitor (LXS196; MedChemExpress), by long-term culture in growth media (see Table 9) containing increasing concentrations of the compound, up to 1 micromolar. After 3 months, sensitivity of the parental MP41 cells and the PKC inhibitor (PKCi)-resistant cells to the PKC inhibitor (LXS196) or the BRG1/BRM ATPase inhibitor (Compound B) was tested in a 7-day growth inhibition assay as described above in Example 6.

The subject of data set [7] is 92-1 uveal melanoma cells (subcutaneous tumors). In words: 92-1 uveal melanoma xenograft tumor growth in nude mice. To be noted: 3 weeks. It counts as in vivo. The method, then: Procedure: Nude mice (Envigo) were engrafted subcutaneously in the axillary region with 5×10^6 92-1 uveal melanoma cells in 50% Matrigel. Tumors were grown to a mean of ˜200 mm^3, at which point mice were grouped and dosing was initiated. Mice were dosed once daily by oral gavage with vehicle (20% 2-Hydroxypropyl-β-Cyclodextrin) or increasing doses of Compound C. Tumor volumes and body weights were measured over the course of 3 weeks, and doses were adjusted by body weight to achieve the proper dose in terms of mg/kg. At this time, animals were sacrificed, and tumors were dissected and imaged.

Turning to `CSCC[C@H](NC(=O)c1ccc(N)cc1)C(=O)Nc1nc(-c2cccc(-c3ccncc3)c2)cs1` [Compound A], the “duration of growth inhibition” value in data set [1] is on record as “maintained through day 7”. For the same compound, the “growth inhibition compared with clinical PKC and MEK inhibitors” value in data set [2] (3 days, FIG. 2A, 2B) is given as “comparable growth inhibition”. In data set [2], the “onset of inhibition compared with clinical PKC and MEK inhibitors” value was “faster onset of inhibition”.
Consider `CSCC[C@H](NC(=O)c1ccn(S(C)(=O)=O)c1)C(=O)Nc1nc(-c2cccc(-c3ccncc3)c2)cs1` [Compound B, (S)-1-(methylsulfonyl)-N-(4-(methylthio)-1-oxo-1-((4-(3-(pyridin-4-yl)phenyl)thiazol-2-yl)amino)butan-2-yl)-1H-pyrrole-3-carboxamide], for which the “sensitivity of cell lines to BRG1/BRM inhibition (growth)” value in data set [3] (breast cancer and Ewing's sarcoma cell lines vs other tested cell lines, FIG. 3) is reported as “more sensitive to BRG1/BRM inhibition than the other tested cell lines”. The “duration of growth inhibition” value in data set [3] (breast cancer and Ewing's sarcoma cell lines, day 7) is on record as “maintained through day 7”. Besides, the “growth inhibition in uveal melanoma cell lines” value in data set [4] was “potent growth inhibition”. In data set [5] (3 days, FIG. 6A, 6B), the “growth inhibition compared with clinical PKC and MEK inhibitors” value is reported as “more potent effects on growth inhibition”. Further, the “onset of growth inhibition compared with clinical PKC and MEK inhibitors” value in data set [5] is “faster onset of growth inhibition”. For the same compound, the “sensitivity of PKCi-resistant cells relative to parental MP41 cells” value in data set [6] (FIG. 7B) is listed as “more sensitive to Compound B than were the parental MP41 cells”. In data set [6] (both PKCi-resistant and parental MP41, FIG. 7B), the “growth inhibition of PKCi-resistant and parental cell lines” value was “strong growth inhibition”.
For `C[C@@H]1CN(c2cccc(-c3csc(NC(=O)CNC(=O)c4ccn(C(C)(C)C)c4)n3)n2)C[C@H](C)O1` [Compound C, 1-(tert-butyl)-N-(2-((4-(6-(cis-2,6-dimethylmorpholino)pyridin-2-yl)thiazol-2-yl)amino)-2-oxoethyl)-1H-pyrrole-3-carboxamide], the “tumor response at the highest dose” value in data set [7] (50 mg/kg, once daily oral gavage) is reported as “tumor regression”. Moreover, the “tolerability / body weight” value in data set [7] (all treatments, FIG. 8C) was “well tolerated with no body weight loss observed”. In addition, the tumor growth inhibition result in data set [7] (once daily oral gavage, increasing doses, FIG. 8A, 8B) is recorded as “tumor growth inhibition in a dose-dependent manner”.
